The subject of one series is L3.6pl cells. The series can be described thus: Human orthotopic model of pancreatic cancer, L3.6pl cells in nude mice. To be noted: for reduction of tumor size, ranking (side-by-side comparison): 20 μg per injection three times per week for 3 weeks (FIG. 23A); for variability in the individual tumor size within the group: 20 μg per injection three times per week for 3 weeks (FIG. 23B); for metastatic spreading to the liver (side-by-side comparison): 20 μg per injection three times per week for 3 weeks (FIG. 24); for tumor growth compared to the control peptide (side-by-side comparison): 20 μg per injection three times per week for 3 weeks, 5 animals per group. The format is in vivo. Here is the method:
In the case of the human orthotopic model, L3.6pl pancreatic carcinoma cells (passage 24-26) were suspended in Hank's balanced salt solution (Invitrogen, Karlsruhe, Germany) after trypsinization. The cells were injected orthotopically in the pancreas of male nude mice as described (Bruns C J et al. (1999) Neoplasia 1(1):50-62). Two groups of 15 mice each were injected i.p. 7 days later with either the human v6 peptide respectively rat control peptide (20 μg). For all experiments described and depicted herein either the rat 14mer control peptide or the human 14mer peptide were used. All experiments were then repeated with the rat 5mer control peptide or the human 5mer peptide (N-R-W-H-E, SEQ ID NO: 2). […] The injection was repeated three times per week for 21 days. Two days after the last treatment the animals were killed. […]
A comparison of different CD44v6 peptide derivatives was performed in animals bearing a orthotopic L3.6pl tumor. 10 groups of 5 animals each received a dose of 20 μg peptide per injection three times per week for 3 weeks with the compounds listed in Table 4. Three weeks after starting the treatment the animals were sacrificed and analyzed for macroscopic metastases and tumor volume.

For another series, the system named is HT29 cells. The series can be described thus: HGF induced scattering of HT29 cells. The format is cell-based, human. As to conditions: HGF 10 ng/ml, peptide pre-incubation (Example 2). The method, then: FIG. 17: The human CD44 v6 specific peptides block HGF induced cell scattering and invasion into matrigel. Scattering of HT29 cells was determined in 24-well plates. First, 4.5×10^4 cells were seeded at 37° C.; after 24 h the cells were serum starved for additional 24 h. the cells were either left untreated (control) or later treated with HGF (50 ng/ml) for 24 h. Where indicated the cells were treated with the v6 specific peptide (human v6 5mer, 10mer, 14mer) or control peptide prior to induction with HGF for 30 min. Pictures were made using phase contrast microscopy. Magnification 40×.
A scatter assay was performed additionally. HT29 colon cancer cells were grown in medium containing 10% FCS. One day after seeding, the cells were starved. On the third day, the cells were induced with HGF (10 ng/ml) and pre-incubated with either no peptide, ctrl-peptides (SEQ ID No.: 15), non-pegylated v6-peptides (SEQ ID No.: 11) or the pegylated peptides, namely PEG-rat control peptide and PEG-rat CD44v6 peptide.
Scattering of HT29 cells was determined in 24-well plates. First, 4×10^5 cells were seeded at 37° C.; the cells were either left untreated or 48 h later treated with HGF (50 ng/ml) for 24 h or with PEGylated or non-PEGylated peptides (100 ng/ml) prior to HGF induction for 30 min.

For series [1], the system named is BSp73ASs6 cells. Briefly: Apoptosis in established lung metastases (cleaved Caspase-3, cleaved Caspase-8), BSp73ASs6 rat model. The format is in vivo. To be noted: injection every second day. The method, then: 7 μm thick paraffin sections were deparaffinized and rehydrated. For P-Met staining antigen unmasking was achieved by boiling the slides in 1 mM EDTA pH 8.0 followed by incubation for 15 minutes at a sub-boiling temperature, for CD31 staining the sections were treated with Proteinase K (8 μg/ml) for 10 min at 37° C. For immunofluorescence staining of P-Met, unspecific binding was blocked with 5% goat serum (DAKO, Glostrup, Denmark) (diluted in 1×PBS/0.3% Triton X-100) for 60 minutes. In the case of immunohistochemistry, endogenous peroxidases were at first blocked with 3% H2O2 in PBS followed by incubation with biotin blocking system (Dako, Glostrup, Denmark) and then unspecific binding was inhibited by incubation with 5% FCS in PBS. The sections were incubated with the P-Met antibody (D26, dilution 1:50 in 1×PBS/1% BSA/0.3% Triton X-100), Met antibody (C-28, dilution 1:50), GFP antibody (sc-101525, dilution 1:50) or CD31 antibody (5 μg/ml) over night or VFF18 (5 μg/ml) o/n at 4° C. After washing in PBS the sections were incubated with Alexa Fluor R 546 goat anti-rabbit (in case of immunofluorescence P-Met and Met staining, dilution 1:500) or a biotinylated secondary antibody (for immunohistochemical stainings rabbit anti-rat antibody for VFF18 and CD31, goat anti-rabbit for P-Met, cleaved Caspase-3 and cleaved Caspase-8 and rabbit anti-mouse for GFP, dilution 1:500) for 45 minutes. For DAB (3,3′-diaminobenzidine) staining the sections were treated with a streptavidin-peroxidase conjugate (Dako, Glostrup, Denmark) and developed with DAB substrate system (3,3′-diaminobenzidine; Biozol, Eching, Germany). For immunofluorescence DAPI was used for nuclear staining.
One hypothesis for the disappearance of metastases is that the peptides induce apoptosis of CD44v6-expressing metastatic cells in the secondary organs. In order to test this hypothesis, the experiment described above using the BSp73ASs6 cells was repeated. The cells were injected subcutaneously in syngeneic rats and the tumor was allowed to develop for three weeks. After that time the animals were separated in two groups of 10 animals that were injected either with the specific rat CD44v6 peptide or with the control peptide (mouse) every second day. One day following each injection of the peptide, the lungs of one animal were removed and apoptosis was measured using an antibody that detects the cleaved form of Caspase 3. […] Twelve days after injection of the CD44v6 peptide, less apoptosis was observed. […] From these experiments, it is concluded that the CD44v6 peptide induces apoptosis of metastatic cells.

Series [2] deals with BSp73ASs6 cells. Briefly: Rat syngeneic model, subcutaneous BSp73ASs6 tumor, metastasis formation. It is filed as in vivo. As to conditions: 200 μg per injection, intra-tumoral or intravenously three times a week, start after one week of tumor growth. Here is the method: In the case of the rat syngeneic model, 1×10^6 pancreatic cells (BSp73AS and its transfectants) were subcutaneously injected into the right posterior flank of the animals. Tumors developed for four weeks. During this time period animals injected with BSp73ASs6 cells expressing Met-shRNA or control-shRNA received doxycycline in the drinking water. At the end of the experiment, primary tumors were isolated. Lungs and axillary lymph nodes were analyzed. The tissues were incubated for 24 h in a zinc-fixative (0.5 g calcium acetate, 5.0 g zinc acetate, 5.0 g zinc chloride, in 1 L 0.1 M Tris pH 7.4) and embedded in paraffin for further analysis. In case of peptide or antibody treatment tumors developed for one week before the first treatment. Where indicated, animals received 200 μg of peptide or antibody per injection three times per week for four weeks. Tumor growth was monitored weekly using a caliper. Animals were killed at day 28 or 30 after start of the treatment.
For histo-morphological analysis paraffin-embedded sections of lungs were stained with hematoxylin and eosin and periodic acid-Schiff (H&E or PAS). Serial sections of the whole tissue blocks were examined by analyzing slices every 20 μm; in each slice, the presence and the extension of the metastatic deposit was assessed, according to the procedure routinely used by pathologists to evaluate the presence of micro-metastases.

Data on eleven compounds can be found in patent US9593146B2, “CD44v6-derived peptides for treating metastasizing cancer” (AMCURE GMBH, priority 2012, dated 2017).

Residues, ends and D or L forms follow the SMILES beside them. No end group written: not given here. *: point of attachment. PEG2000 = polyethylene glycol with a molecular weight of 2000 Da; DOTA = O=C(O)CN1CCN(CC(=O)O)CCN(CC(=O)*)CCN(CC(=O)O)CC1; Myristoyl = CCCCCCCCCCCCCC(=O)*

For DOTA-cy[KRWHE] [cycl 5 mer], in the series with L3.6pl cells, the “reduction of tumor size, ranking (side-by-side comparison)” value (“reduction of tumor size, ranking” below) is reported as “strongest reduction of tumor size”; the “variability in the individual tumor size within the group” value (“variability” below) was “low variability”; the “metastatic spreading to the liver (side-by-side comparison)” value (shortened to “metastatic spreading to the liver”) is recorded as “complete inhibition of metastasis”.
For the compound “NAAAG [ctrl-peptides, reference compound]”, in the series on HT29 cells, the “HGF induced clustering / scattering of HT29 cells (FIG. 11)” value is “not control peptides lead to dissociation and migration”.
`N=C(N)NCCC[C@H](NC(=O)[C@@H](N)CC(N)=O)C(=O)N[C@@H](Cc1c[nH]c2ccccc12)C(=O)N[C@@H](Cc1c[nH]cn1)C(=O)N[C@@H](CCC(=O)O)C(=O)O` [human 5mer, NRWHE] (H-NRWHE-OH; N-terminus and C-terminus assumed): the “side effects in the animals” value with L3.6pl cells (200 μg per injection i.p. three times per week) is “did not lead to side effects in the animals”.
As to “Myr-Y-cy[KGNRWHEG] (Myristoyl-YKGNRWHEG; not fully specified (bridges); printed as Myr-Y-cy[KGNRWHEG]; also: cyclic, ring closure not given here) [Myr-Y-cycl 8 mer]”, the “metastatic spreading to the liver” value in the series with L3.6pl cells is “decrease of metastatic spreading”.
For the compound “PEG2000-KEQWFGNRWHEGYR-OH [PEG2000 14-mer]”, in the series with L3.6pl cells, the “reduction of tumor size, ranking” value is “strongest reduction of tumor size”; the “variability” value is on record as “low variability”; the “metastatic spreading to the liver” value is listed as “decrease of metastatic spreading”; the “tumor growth compared to the control peptide (side-by-side comparison)” value is recorded as “significant reduction in tumor growth”.
As to “mouse control peptides: mouse CD44v6 peptide used as control in the rat syngeneic model (WFQNGWQGKNP) [reference compound]”, in the series with BSp73ASs6 cells [1], the “apoptosis (cleaved Caspase 3) in lung metastases” value is reported as “No apoptosis at all was detected” and the “lung metastasis at day twenty-two” value was “metastatic spreading was evident in the lungs”. The “metastasis (axillary lymph nodes, lungs)” value with BSp73ASs6 cells [2] is “numerous metastases were detected in the lungs”.
In the case of “DOTA-keqwfGNRWHEGyr [DOTA CD44v6-14 [daa7]]”, the “metastatic spreading to the liver” value in the series with L3.6pl cells was “decrease of metastatic spreading”.
On to “PEG840-KEQWFGNRWHEGYR-OH [PEG840 14-mer]”, for which, in the series on L3.6pl cells, the “metastatic spreading to the liver” value is recorded as “decrease of metastatic spreading” and the “tumor growth compared to the control peptide (side-by-side comparison)” value was “significant reduction in tumor growth”.
Regarding “Myr-KEQWFGNRWHEGYR (Myristoyl-KEQWFGNRWHEGYR) [Myristoyl-14-mer]”, the “tumor growth compared to the control peptide (side-by-side comparison)” value with L3.6pl cells is reported as “no inhibitory effect on tumor growth”.
In the case of “cy[KGNRWHEG] (not fully specified (bridges); printed as cy[KGNRWHEG]; also: cyclic, ring closure not given here) [cycl. 8 mer]”, in the series with L3.6pl cells, the “reduction of tumor size, ranking” value is recorded as “strongest reduction of tumor size”; the “variability” value is reported as “low variability”; the “metastatic spreading to the liver” value is listed as “complete inhibition of metastasis”. For the same compound, the “metastatic spreading at 2 and 20 μg per injection” value in the series on L3.6pl cells (2 and 20 μg per injection, three times per week) is “blocked metastatic spreading”. The “size / growth of the primary tumor (dose reduction study)” value in the series on L3.6pl cells (three injections per week for 3 weeks, compared to control groups (FIG. 22C)) is reported as “drastic effect on growth of the primary tumor”.
“DOTA-KEQWFGNRWHEGYR ({DOTA}-KEQWFGNRWHEGYR; not fully specified (residue 14)) [DOTA CD44v6-14 [r^14]]”: the “metastatic spreading to the liver” value in the series on L3.6pl cells is given as “complete inhibition of metastasis”.
